# Assay results: US20250376689A1, “OLIGONUCLEOTIDES HAVING 6-THIO-2'-DEOXYGUANOSINE RESIDUES AND USES THEREOF” (City of Hope, priority 2021, published 2025)
# What was measured:
# activated T cells = test: Viability of CD3/CD28-activated human T cells (flow cytometry); format: cell-based; details: human T cells activated with CD3/CD28 beads and IL-2
# Experimental: (§1) PMBCs from 3 healthy donors were seeded at a density of 10^7/mL and treated with CpG alone, 6tdG alone, combination of CpG and 6tdG, CpG(6tdG)6-p, CpG(6tdG)5G for 2 days. Cell apoptosis was measured using flow cytometry after staining for Annexin V and 7AAD. Representative results obtained from 3 independent experiments; means±SEM (n=3). (FIG. 4B) Human T cells isolated from 3 healthy donor PBMCs using negative selection were activated with CD3/CD28 beads in the presence of 20 ng/mL human IL-2 to induce proliferation. After activation, T cells were incubated in the presence of CpG alone, 6tdG alone, combination of CpG and 6tdG, CpG(6tdG)6-p or CpG(6tdG)5G for the indicated times before subject to viability analysis in flow cytometry. (FIG. 4C) Activated and proliferating T cells, but not naïve/resting T cells, have high levels of telomerase activity. The telomerase activity was assayed using TRAPeze kit (EMD Millipore), a telomerase repeated amplification protocol, and PCR products were qualitatively analyzed in a PAGE gel.
# [1] = system: resting human lymphocytes; test: Apoptosis/viability of resting human PBMCs (Annexin V/7AAD flow cytometry); format: cell-based; details: PBMCs from 3 healthy donors, treated 2 days
# Experimental: as §1
# [2] = system: TBK1 signaling downstream from STING; test: Western blot of activated and total TBK1 in DCs co-cultured with pretreated RM9 cells; format: cell-based, mouse
# Experimental: FIG. 8A: RM9 prostate cancer cells were treated with a combination of 5 μM 6tdG and 1 μM CpG, 1 μM CpG(6tdG)6-p or PBS overnight, washed and incubated for the additional 3 days in fresh media. The dying cancer cells were then harvested and co-cultured for 18 h with freshly isolated, mouse primary splenic DC at a ratio of 1:10. The percentages of activated DCs (CD11c+MHC II+/CD80+ or CD86+) were analyzed by flow cytometry. FIG. 8B: Bone-marrow derived dendritic cells (BMDCs) were co-cultured with cancer cells in the presence of CpG alone, 6tdG alone, combination of CpG and 6tdG, or CpG(6tdG)6-p for 3 days. The expression of IFN-β mRNA was analyzed by real-time qPCR. Shown are results from three independent experiments; means±SEM (n=3); ****P<0.0001; *P<0.05 compared to the untreated group. FIG. 8C: TBK1 signaling downstream from STING is activated in primary mouse DCs co-cultured with RM9 cells pretreated using 6tdG alone, in combination with CpG or by CpG-(6tdG)6-p oligomer. The protein content of dendritic cells was analyzed using western blot to evaluate levels of activated and total TBK1. The protein levels were normalized to beta-actin and quantified densitometrically.
# [3] = system: telomerase-negative normal cells; details: cited from earlier work
smiles,measurement,setting,value
"Nc1nc2c(ncn2[C@H]2C[C@H](O)[C@@H](CO)O2)c(=S)[nH]1 [6tdG, 6-thio-2′-deoxyguanosine]",cytotoxicity to activated T cells,activated T cells,cytotoxic to activated T cells
same,viability of resting human lymphocytes,[1],Neither 6tdG nor CpG-6tdG oligomers affect viability
same,TBK1 signaling in primary mouse DCs,[2],activated
same,cytotoxic effects on telomerase-negative normal cells,[3],minimal cytotoxic effects
